The values below come from ChEMBL document CHEMBL1201862, “PubChem BioAssay data set” (2004).

Among the test systems are IGROV-1; LOX IMVI; OVCAR-8; NCI-H460; SN12C; COLO 205; NCI/ADR-RES; SNB-19; CCRF-CEM; HOP-62; UACC-257; A498; KM12; HOP-92; PC-3; HCT-116; Hs-578T; SK-MEL-28; MCF7.
Assay in all cases: growth of human tumour cells (NCI), 48 h

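Growth conditions: 96-well plates. Treatment: test compound, 48 hours, 5 concentrations. Analysis: linear interpolation between bracketing concentrations; unreached endpoints set to highest concentration. The concentration for 50% growth inhibition is given as GI50.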 Activity calls are given as the source filed them. No stated cut-off is given here; in the data, active = GI50 up to about 1.1 µM and inactive = higher.

Consider `c1ccc(-c2c[nH]c(SC(c3ccccc3)c3ccccc3)n2)cc1`, for which the GI50 with IGROV-1 is 19.2 µM (inactive); with LOX IMVI it was 17.6 µM (inactive); in the assay with OVCAR-8 it was 19.6 µM (inactive); with NCI-H460, 10.2 µM (inactive); with SN12C, 17.4 µM (inactive); in the assay on COLO 205, 13 µM (inactive). For the same compound, the GI50 was 11.1 µM (inactive) in the assay on NCI/ADR-RES; 38 µM (inactive) in the assay on SNB-19; 19.3 µM (inactive) with CCRF-CEM; 29 µM (inactive) in the assay with HOP-62; 18 µM (inactive) in the assay with UACC-257; 24.7 µM (inactive) with A498. Moreover, the GI50 in the assay with KM12 was 16.8 µM (inactive); in the assay on HOP-92, 9.51 µM (inactive); with PC-3 it was 22.1 µM (inactive); in the assay on HCT-116 it was 12.7 µM (inactive); in the assay on Hs-578T, 33.3 µM (inactive); in the assay on SK-MEL-28 it was 33.7 µM (inactive). In the assay on MCF7, the GI50 is 20.3 µM (inactive).
`CCCCc1ccc(Nc2nc3c(ncn3C3CC(O)C(CN=[N+]=[N-])O3)c(=O)[nH]2)cc1` (stereo not drawn): the GI50 with IGROV-1, in the assay on LOX IMVI, with OVCAR-8, in the assay with NCI-H460, in the assay on SN12C and in the assay with COLO 205 was > 100 µM (inactive) in each case. For the same compound, the GI50 in the assay on NCI/ADR-RES, with SNB-19, with CCRF-CEM, with HOP-62, in the assay with UACC-257 and with A498 was > 100 µM (inactive) throughout. Further, the GI50 in the assay with KM12, in the assay on HOP-92, in the assay with PC-3, with HCT-116, in the assay with Hs-578T and in the assay with SK-MEL-28 was > 100 µM (inactive) throughout. For the same compound, the GI50 in the assay on MCF7 was > 100 µM (inactive).
Consider `Cc1ccc(S(=O)(=O)N/C(=N\O)Nc2ccc(Cl)c(Cl)c2)cc1`, for which the GI50 was 13.9 µM (inactive) with IGROV-1; 4.11 µM (inactive) in the assay on LOX IMVI; 8.04 µM (inactive) in the assay with OVCAR-8; 9.95 µM (inactive) with NCI-H460; 2.12 µM (inactive) in the assay with SN12C; 17.1 µM (inactive) in the assay with COLO 205. In addition, the GI50 in the assay on NCI/ADR-RES is 12.8 µM (inactive); in the assay with SNB-19 it was 7.4 µM (inactive); in the assay on CCRF-CEM it was 2.42 µM (inactive); in the assay with HOP-62 it was 14.1 µM (inactive); in the assay on UACC-257, 4.68 µM (inactive); in the assay with A498, 10.3 µM (inactive). The GI50 was 11.2 µM (inactive) in the assay with KM12; 3.05 µM (inactive) in the assay with HOP-92; 5.48 µM (inactive) in the assay with PC-3; 5.31 µM (inactive) in the assay with HCT-116; 3.73 µM (inactive) with Hs-578T; 3.34 µM (inactive) in the assay on SK-MEL-28. The GI50 with MCF7 is 17.5 µM (inactive).
Regarding `OC1c2c(ccc3c2CCC3)CC12Cc1ccccc1C2` (stereo not drawn), the GI50 is 17.7 µM (inactive) with IGROV-1; 15.9 µM (inactive) with LOX IMVI; 17.7 µM (inactive) in the assay with OVCAR-8; 17.1 µM (inactive) in the assay on NCI-H460; 15.3 µM (inactive) with SN12C; 16.3 µM (inactive) in the assay with COLO 205. Moreover, the GI50 was 14.3 µM (inactive) with NCI/ADR-RES; 15.7 µM (inactive) in the assay with SNB-19; 23.2 µM (inactive) in the assay with CCRF-CEM; 16.4 µM (inactive) in the assay on HOP-62; 14.1 µM (inactive) with UACC-257; 16.2 µM (inactive) in the assay with A498. The GI50 was 14.9 µM (inactive) in the assay with KM12; 13 µM (inactive) in the assay with HOP-92; 15.3 µM (inactive) with PC-3; 16 µM (inactive) in the assay with HCT-116; 16.6 µM (inactive) in the assay with Hs-578T; 16.6 µM (inactive) in the assay with SK-MEL-28. The GI50 in the assay with MCF7 was 18 µM (inactive).
For `C=C(C)C(=O)O[C@@H]1C[C@@]2(C)O[C@@H]2C[C@H](O)/C(C)=C/[C@H]2OC(=O)C(=C)[C@@H]21`, the GI50 is > 100 µM (inactive) with IGROV-1; 29.9 µM (inactive) in the assay on LOX IMVI; 40.6 µM (inactive) in the assay on OVCAR-8; > 100 µM (inactive) in the assay on NCI-H460; 36.6 µM (inactive) with SN12C; 42 µM (inactive) in the assay on COLO 205. Moreover, the GI50 with NCI/ADR-RES was 60.7 µM (inactive); in the assay on SNB-19, > 100 µM (inactive); in the assay with CCRF-CEM, 17.3 µM (inactive); in the assay with HOP-62, > 100 µM (inactive); with UACC-257, > 100 µM (inactive); in the assay with A498, > 100 µM (inactive). The GI50 in the assay on KM12 was > 100 µM (inactive); in the assay on HOP-92, 52.8 µM (inactive); with PC-3, > 100 µM (inactive); with HCT-116 it was 33.7 µM (inactive); in the assay on Hs-578T, > 100 µM (inactive); in the assay on SK-MEL-28, 22.4 µM (inactive). For the same compound, the GI50 in the assay with MCF7 is 35.8 µM (inactive).
Turning to `COc1cc2cc(C(=O)N3CC(CCl)c4c3cc(N)c3ccccc43)[nH]c2cc1OCCN(C)C` (stereo not drawn), the GI50 with IGROV-1 was < 0.005 µM (active); in the assay on LOX IMVI, < 0.005 µM (active); in the assay on OVCAR-8 it was < 0.005 µM (active); in the assay with NCI-H460, < 0.005 µM (active); with SN12C it was 0.00597 µM (active); in the assay with COLO 205, < 0.005 µM (active). For the same compound, the GI50 in the assay on NCI/ADR-RES was 0.00931 µM (active); with SNB-19, 0.00644 µM (active); with CCRF-CEM, < 0.005 µM (active); in the assay with HOP-62 it was < 0.005 µM (active); with UACC-257, 0.00993 µM (active); with A498 it was 0.00546 µM (active). The GI50 in the assay on KM12 is < 0.005 µM (active); in the assay with HOP-92, < 0.005 µM (active); with PC-3, < 0.005 µM (active); in the assay with HCT-116, < 0.005 µM (active); with Hs-578T, 0.027 µM (active); in the assay with SK-MEL-28, 0.00705 µM (active). The GI50 with MCF7 is < 0.005 µM (active).
On to `CC1(C)CC(=O)c2c(nc(SSc3nc4c(c(-c5ccc(Br)cc5)c3C#N)C(=O)CC(C)(C)C4)c(C#N)c2-c2ccc(Br)cc2)C1`, for which the GI50 with IGROV-1, in the assay with LOX IMVI, in the assay with OVCAR-8, in the assay with NCI-H460, in the assay on SN12C and in the assay on COLO 205 was > 10 µM (inactive) each time. For the same compound, the GI50 in the assay with NCI/ADR-RES, with SNB-19, in the assay on CCRF-CEM, with HOP-62, in the assay on UACC-257 and with A498 was > 10 µM (inactive) throughout. The GI50 in the assay on KM12, in the assay with HOP-92, in the assay on PC-3, with HCT-116, in the assay on Hs-578T and in the assay on SK-MEL-28 was > 10 µM (inactive) in each case. For the same compound, the GI50 with MCF7 is > 10 µM (inactive).
